# Measurements as given in US7632819B1, “Methods and compositions for inhibiting PKC delta cleavage for treatment and prevention of neurodegeneration and apoptosis” (Iowa State University Research Foundation, Inc., priority 2004, dated 2009).
# Where a SMILES comes first, the peptide text is derived from it. The star is where a group is joined. Cbz = O=C(OCc1ccccc1)*; CH2F = FC*
# What was measured:
# caspase-3 = target: T1, caspase-3 (Rattus norvegicus, UniProt P55213); assay: Caspase-3 activity assay with fluorogenic substrate Ac-DEVD-AFC in treated N27 cells; assay type: cell-based
# T1 construct: N27 cells were exposed to either MPP^+ or 6-OHDA in the absence or presence of z-DIPD-fmk; endogenous in cells; host or cells: N27 rat mesencephalic dopaminergic neuronal cells
# T1 sequence (P55213 29-175 limits assumed): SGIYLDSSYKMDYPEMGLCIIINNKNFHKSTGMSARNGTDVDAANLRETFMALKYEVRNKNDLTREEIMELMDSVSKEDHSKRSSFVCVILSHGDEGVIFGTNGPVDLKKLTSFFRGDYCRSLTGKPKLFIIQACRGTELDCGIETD
# T1 sequence (P55213 176-277 limits assumed): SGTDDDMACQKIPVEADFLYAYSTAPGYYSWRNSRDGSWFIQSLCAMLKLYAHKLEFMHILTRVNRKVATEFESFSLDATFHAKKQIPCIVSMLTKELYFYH
# Excerpt: Chemicals. Protease cocktail, ATP, protein-A-sepharose, protein-G-sepharose and anti-â-actin antibody were obtained from Sigma-Aldrich (St. Louis, Mo.); mouse tyrosine hydroxylase antibody was purchased from Chemicon (Temecula, Calif.); the rabbit polyclonal antibody for tyrosine hydroxylase was obtained from Calbiochem Bioscience, Inc. (King of Prussia, Pa.); rabbit PKCδ antibody was purchased from Santa Cruz Biotechnology, Inc. (Santa Cruz, Calif.); anti-rabbit and anti-mouse secondary antibodies and the ECL chemiluminescence kit were purchased from Amersham Pharmacia Biotech. (Piscataway, N.J.). Alexa 488 conjugated antirabbit/mouse, Cy3 conjugated anti-rabbit/mouse antibody and Hoechst 33342 were purchased from Molecular Probes, Inc. (Eugene, Oreg.). [ã-32P]ATP was purchased from Perkin Elmer Life Science Products (Boston, Mass.). The Bradford protein assay kit was purchased from Bio-Rad Laboratories (Hercules, Calif.). RPMI, fetal bovine serum, -glutamine, penicillin, and streptomycin were purchased from Invitrogen (Gaithersburg, Md.). Quantity One 4.2.0 software was purchased from Bio-Rad. Design and synthesis of z-DIPD-fmk (SEQ ID NO:5). To develop a cell permeable peptide inhibitor to specifically block PKCδ cleavage, we designed the tetrapeptide Asp-Ile-Pro-Asp (DIPD) (SEQ ID NO:5) corresponding to position 324-327 in rat PKCδ cDNA representing the caspase-3 cleavage site. Since this peptide is directed against the caspase-3 cleavage site of PKCδ, it should prevent the proteolytic cleavage and activation of PKCδ mediated by caspase-3. The custom synthesis of the tetrapeptide Z-Asp(OMe)-Ile-Pro-Asp(OMe)-FMK (SEQ ID NO:5) was performed at MP Biomedicals (Irvine, Calif.), a quality company that specializes in developing cell permeable peptide inhibitors directed against apoptosis cell signaling molecules. Briefly, the synthesis was performed with the reaction of Boc-D(OMe)-OH with MBFM (Magnesium benzyl fluoromalonate) to produce Beta-Keto fluoroester, followed by hydrogenation with Pd/c to produce Boc-D(OMe)FK, which was converted into Tfa salt using trifluoroacetic acid. Coupling of Tfa salt with Z-D(OMe)—I—P—OH in DMF with HOBT, HBTU DIEA and workup produced a crude product which was purified by column chromatography over silica gel. Elution with EtOAC:MeOH 95:5 gave pure fractions which were mixed and dried. Crystallization with EtOAC/Hexane, filtration and drying produced the pure product. Animals. Time-pregnant C57/bL mice were housed under standard conditions: constant temperature (22±1° C.), humidity (relative, 30%) and a 12-h light/dark cycle with free access to food and water. The animals and protocol procedures were approved and supervised by the Committee on Animal Care (COAC) at Iowa State University. Cell culture. Rat mesencephalic dopaminergic neuronal (N27) cells were cultured as described earlier (Anantharam et al., 2002). Briefly, cells were grown in RPMI 1640 medium containing 10% fetal bovine serum, 2 mM L-glutamine, 50 units of penicillin, and 50 μg/ml streptomycin. Cells were maintained in a humidified atmosphere of 5% CO2 at 37° C. Primary mesencephalic neuronal cultures were prepared from the ventral mesencephalon of gestational 18-day-old mice embryos as described previously (Yang et al., 2004). Mesencephalic tissues were dissected and maintained in ice-cold Ca2+-free HBSS and then dissociated in HBSS solution containing trypsin-EDTA (0.25%) for 20 min at 37° C. […]
# PKCδ = assay: Western blot of PKCδ proteolytic cleavage in N27 cells; assay type: cell-based, rat
# Excerpt: Chemicals. Protease cocktail, ATP, protein-A-sepharose, protein-G-sepharose and anti-â-actin antibody were obtained from Sigma-Aldrich (St. Louis, Mo.); mouse tyrosine hydroxylase antibody was purchased from Chemicon (Temecula, Calif.); the rabbit polyclonal antibody for tyrosine hydroxylase was obtained from Calbiochem Bioscience, Inc. (King of Prussia, Pa.); rabbit PKCδ antibody was purchased from Santa Cruz Biotechnology, Inc. (Santa Cruz, Calif.); anti-rabbit and anti-mouse secondary antibodies and the ECL chemiluminescence kit were purchased from Amersham Pharmacia Biotech. (Piscataway, N.J.). Alexa 488 conjugated antirabbit/mouse, Cy3 conjugated anti-rabbit/mouse antibody and Hoechst 33342 were purchased from Molecular Probes, Inc. (Eugene, Oreg.). [ã-32P]ATP was purchased from Perkin Elmer Life Science Products (Boston, Mass.). The Bradford protein assay kit was purchased from Bio-Rad Laboratories (Hercules, Calif.). RPMI, fetal bovine serum, -glutamine, penicillin, and streptomycin were purchased from Invitrogen (Gaithersburg, Md.). Quantity One 4.2.0 software was purchased from Bio-Rad. Design and synthesis of z-DIPD-fmk (SEQ ID NO:5). To develop a cell permeable peptide inhibitor to specifically block PKCδ cleavage, we designed the tetrapeptide Asp-Ile-Pro-Asp (DIPD) (SEQ ID NO:5) corresponding to position 324-327 in rat PKCδ cDNA representing the caspase-3 cleavage site. Since this peptide is directed against the caspase-3 cleavage site of PKCδ, it should prevent the proteolytic cleavage and activation of PKCδ mediated by caspase-3. The custom synthesis of the tetrapeptide Z-Asp(OMe)-Ile-Pro-Asp(OMe)-FMK (SEQ ID NO:5) was performed at MP Biomedicals (Irvine, Calif.), a quality company that specializes in developing cell permeable peptide inhibitors directed against apoptosis cell signaling molecules. […]
smiles,measurement,setting,value
"CC[C@H](C)[C@H](NC(=O)[C@H](CC(=O)OC)NC(=O)OCc1ccccc1)C(=O)N1CCC[C@H]1C(=O)N[C@@H](CC(=O)OC)C(=O)CF [z-DIPD-fmk, Z-Asp(OMe)-Ile-Pro-Asp(OMe)-FMK] (Cbz-D(OMe)IPD(OMe)-CH2F)",effect on 6-OHDA-induced caspase-3 activation,"caspase-3; 100 μM 6-OHDA 24 hr, inhibitor 50 μM",completely blocked
same,effect on MPP+-induced caspase-3 activation,"caspase-3; 300 μM MPP+ 36 hr, inhibitor 50 μM",completely blocked
same,effect on MPP+- and 6-OHDA-induced caspase-3 activation,"caspase-3; co-treatment, concentration not given",dose-dependently attenuated
same,effect on 6-OHDA-induced proteolytic cleavage of PKCδ,"PKCδ; N27 cells, 100 μM 6-OHDA 24 hr, inhibitor 50 μM",significantly attenuated
same,effect on MPP+-induced proteolytic cleavage of PKCδ,"PKCδ; N27 cells, 300 μM MPP+ 36 hr, inhibitor 50 μM",almost completely attenuated
same,effect on PKCδ cleavage and proteolytic activation in PD models,PKCδ; concentration not given,effectively blocked
